Laboratory results: patent publication US20260001875A1, “AMINOPYRIMIDINYL DERIVATIVES FOR THE TREATMENT OF PARKINSON'S DISEASE” (UNIVERSITY OF DUNDEE, priority 2022, published 2026)

Experiments:
Rab10 pThr73 [1] = assay: Rab10 Thr73 dephosphorylation (immunoblot) in WT MEFs; type: cell-based, mouse; details: Mus musculus, read-out: pRab10 inhibited in WT MEFs
Method: (§1) Western blot degradation assays for the LRRK2 protacs were performed with WT and PD-associated LRRK2 [G2019S] mouse embryonic fibroblasts (MEFs). The second-generation PROTACs were tested in parallel with the first generation PROTACs SD75, SD82, and SD100. The compounds were tested at 33 nM or […] concentrations for 4 hours or 24 hours, running two biological replicates per condition and achieving quantifications representative of both replicates. Analysis by quantitative immunoblotting was performed with readouts of the total LRRK2 (antibody recognizes epitope in C-terminus of protein), Rab10 pThr73 (physiological substrate) and LRRK2 pSer935 (biomarker phosphorylation site).
(§2) Primary MEFs were generated as described in a previous study (Wiggin et al., Mol. Cell Biol. 2002 April; 22(8):2871-81.). Briefly, the uterine horn was collected from adult female mice at day E12.5 and transferred to a 10 cm tissue culture dish containing cold PBS. Two forceps were used to tear the yolk sacs to isolate each embryo. Forceps were cleaned thoroughly with 70% ethanol between each embryo isolation. The embryos were culled, and a tissue piece was collected in a PCR tube for genotyping. The red tissue of the embryo, which grows to become the heart and liver, was removed. The remainder of the embryo was minced with a scalpel blade and incubated with 7.5 ml trypsin-EDTA solution for 10 minutes in a 37° C. tissue culture CO2 incubator. The dish was removed from the incubator and checked under a light microscope for single cells. 7.5 ml complete media was added to the trypsinised cells, and the cell suspension was transferred to a 15 ml Falcon tube, centrifuged at 1200 rpm for 5 minutes at room temperature. The trypsin was aspirated, the cell pellet was resuspended in 5 ml fresh complete media, and the cell suspension was plated in a 60 mm tissue culture dish and incubated in a 37° C., 5% CO2 tissue culture incubator. The MEFs at this stage were considered as passage 0 and were passaged and expanded for experimental use once the genotype was confirmed by allelic sequencing and immunoblotting. MEFs were cultured in Dulbecco's modified Eagle medium (DMEM) containing 10% (v/v) fetal bovine serum (FBS), 2 mM L-glutamine, 100 U/ml penicillin, and 100 μg/ml streptomycin supplemented with 1× non-essential amino acids and 1 mM sodium pyruvate.
Culturing and passaging of adherent cell lines were carried out using aseptic technique in CL1 or CL2 (for PBMC isolation) biological safety cabinets. All cells were incubated in a 37° C. incubator with 5% CO2. Cell lines were regularly tested for mycoplasma contamination. For western blot assay, the cells were seeded in 6-well plates. After treating with testing compounds at indicated concentrations and time period, the media was removed and the cells were washed with PBS and lysed in 100 μl ice-cold complete lysis buffer containing 50 mM Tris-HCl pH 7.4, 1 mM EGTA, 10 mM 2-glycerophosphate, 50 mM sodium fluoride, 5 mM sodium pyrophosphate, 270 mM sucrose, supplemented with 1 μg/ml microcystin-LR, 1 mM sodium orthovanadate, complete EDTA-free protease inhibitor cocktail (Roche) and 1% (v/v) Triton X-100. The cells were immediately placed on ice and were scraped and collected into 1.5 ml Eppendorf tubes. Cell lysates were incubated on ice for 10 minutes prior to centrifugation at 15,000 g at 4° C. for 15 minutes. The cell pellet was discarded, and supernatant was collected for analysis by quantitative immunoblotting. For long term storage, the supernatant was flash frozen and stored at −80° C. Protein concentrations of cell lysates were determined using the Bradford assay.
Cell lysates containing a quarter of a volume of 4× NuPAGE LDS sample buffer (NP0007) supplemented with 5% β-mercaptoethanol, were heated at 95° C. for 5 minutes. […]

Rab10 pThr73 [2] = assay: Rab10 Thr73 dephosphorylation (immunoblot) in LRRK2^G2019S MEFs; type: cell-based; details: Mus musculus, read-out: pRab10 inhibited in LRRK2^G2019S MEFs
Method: as §1, with “The” for “Western blot degradation assays for the LRRK2 protacs were performed with WT and PD-associated LRRK2 [G2019S] mouse embryonic fibroblasts (MEFs). The”
as §2
Culturing and passaging of adherent cell lines were carried out using aseptic technique in CL1 or CL2 (for PBMC isolation) biological safety cabinets. All cells were incubated in a 37° C. incubator with 5% CO2. Cell lines were regularly tested for mycoplasma contamination. For western blot assay, the cells were seeded in 6-well plates. […] The cells were immediately placed on ice and were scraped and collected into 1.5 ml Eppendorf tubes. Cell lysates were incubated on ice for 10 minutes prior to centrifugation at 15,000 g at 4° C. for 15 minutes. The cell pellet was discarded, and supernatant was collected for analysis by quantitative immunoblotting. For long term storage, the supernatant was flash frozen and stored at −80° C. Protein concentrations of cell lysates were determined using the Bradford assay.
Cell lysates containing a quarter of a volume of 4× NuPAGE LDS sample buffer (NP0007) supplemented with 5% β-mercaptoethanol, were heated at 95° C. for 5 minutes. 15 to 20 μg of samples were loaded onto pre-cast 4-12% Bis-Tris midi 20W or 26W gels (Thermofisher Scientific®, Cat #WG1402BOX or WG1403BOX) and resolved at 130 V for 2 hours with NuPAGE MOPS SDS running buffer (Thermofisher Scientific® Cat #NP0001-02). Proteins were electrophoretically transferred onto a 0.45 μm nitrocellulose membrane (GE Healthcare, Amersham Protran® Supported 0.45 mm NC) at 90 V for 90 min on ice in transfer buffer (48 mM Tris base and 39 mM glycine supplemented with 20% methanol). The transferred membrane was blocked with 5% (w/v) skim milk powder dissolved in tris-buffered saline with tween (TBS-T) (50 mM Tris base, 150 mM sodium chloride (NaCl), 0.1% (v/v) Tween-20) at room temperature for 1 hour.

Rab10 pThr73 [3] = assay: as above; type: cell-based, mouse; details: Mus musculus, read-out: pRab10 inhibited in LRRK2^G2019S MEFs

Structure (SMILES) | inhibition at 0.033 µM (Rab10 pThr73 [1]; 33 nM/4 h treatment) | inhibition at 0.033 µM (Rab10 pThr73 [1]; 33 nM/24 h treatment) | inhibition at 1 µM (Rab10 pThr73 [1]; 1 μM/4 h treatment) | inhibition at 1 µM (Rab10 pThr73 [1]; 1 μM/24 h treatment) | inhibition at 0.033 µM (Rab10 pThr73 [2]; 33 nM/4 h treatment) | inhibition at 0.033 µM (Rab10 pThr73 [2]; 33 nM/24 h treatment) | inhibition at 1 µM (Rab10 pThr73 [3]; 1 μM/4 h treatment) | inhibition at 1 µM (Rab10 pThr73 [3]; 1 μM/24 h treatment)
CNc1nc(Nc2ccc(C(=O)N3CCN(CCOCCSC(C)(C)[C@H](NC(=O)C4(F)CC4)C(=O)N4C[C@H](O)C[C@H]4C(=O)NCc4ccc(-c5scnc5C)cc4)CC3)cc2OC)ncc1Cl [XL01131, (2S,4R)-1-((R)-3-((2-(2-(4-(4-((5-chloro-4-(methylamino)pyrimidin-2-yl)amino)-3-methoxybenzoyl)piperazin-1-yl)ethoxy)ethyl)thio)-2-(1-fluorocyclopropane-1-carboxamido)-3-methylbutanoyl)-4-hydroxy-N-(4-(4-methylthiazol-5-yl)benzyl)pyrrolidine-2-carboxamide] | 0 to 40% | 0 to 60% | 10 to 95% | 30 to 100% | 0 to 70% | 0 to 90% | 20 to 100% | 10 to 100%
CNc1nc(Nc2ccc(C(=O)N3CCN(CC4CC[C@H](CSC(C)(C)C(NC(=O)C5(F)CC5)C(=O)N5C[C@H](O)C[C@H]5C(=O)NCc5ccc(-c6scnc6C)cc5)C4)CC3)cc2OC)ncc1Cl (stereo in doubt) [XL02093, (2S,4R)-1-((S)-3-((((1S,3S)-3-((4-(4-((5-chloro-4-(methylamino)pyrimidin-2-yl)amino)-3-methoxybenzoyl)piperazin-1-yl)methyl)cyclopentyl)methyl)thio)-2-(1-fluorocyclopropane-1-carboxamido)-3-methylbutanoyl)-4-hydroxy-N-(4-(4-methylthiazol-5-yl)benzyl)pyrrolidine-2-carboxamide] | 20 to 40% | – | 75 to 90% | – | 20 to 50% | – | 80 to 100% | –
CNc1nc(Nc2ccc(C(=O)N3CCN(Cc4ccc(CSC(C)(C)[C@H](NC(=O)C5(F)CC5)C(=O)N5C[C@H](O)C[C@H]5C(=O)NCc5ccc(-c6scnc6C)c(F)c5)cc4)CC3)cc2OC)ncc1Cl [XL01121, (2S,4R)-1-((R)-3-((4-((4-(4-((5-chloro-4-(methylamino)pyrimidin-2-yl)amino)-3-methoxybenzoyl)piperazin-1-yl)methyl)benzyl)thio)-2-(1-fluorocyclopropane-1-carboxamido)-3-methylbutanoyl)-N-(3-fluoro-4-(4-methylthiazol-5-yl)benzyl)-4-hydroxypyrrolidine-2-carboxamide] | 0 to 40% | 0 to 60% | 10 to 95% | 30 to 100% | 0 to 70% | 0 to 90% | 20 to 100% | 10 to 100%
CNc1nc(Nc2ccc(C(=O)N3CCN(CCOCCOCCSC(C)(C)[C@H](NC(=O)C4(F)CC4)C(=O)N4C[C@H](O)C[C@H]4C(=O)N[C@@H](C)c4ccc(-c5scnc5C)cc4)CC3)cc2OC)ncc1Cl [XL01119, (2S,4R)-1-((R)-3-((2-(2-(2-(4-(4-((5-chloro-4-(methylamino)pyrimidin-2-yl)amino)-3-methoxybenzoyl)piperazin-1-yl)ethoxy)ethoxy)ethyl)thio)-2-(1-fluorocyclopropane-1-carboxamido)-3-methylbutanoyl)-4-hydroxy-N—((S)-1-(4-(4-methylthiazol-5-yl)phenyl)ethyl)pyrrolidine-2-carboxamide] | 0 to 40% | 0 to 60% | 10 to 95% | 30 to 100% | 0 to 70% | 0 to 90% | 20 to 100% | 10 to 100%
CNc1nc(Nc2ccc(C(=O)N3CCN(C[C@H]4CC[C@@H](CSC(C)(C)[C@H](NC(=O)C5(F)CC5)C(=O)N5C[C@H](O)CC5C(=O)NCc5ccc(-c6scnc6C)cc5F)CC4)CC3)cc2OC)ncc1Cl (stereo partly drawn) [XL02058, (2S,4R)-1-((R)-3-((((1s,4S)-4-((4-(4-((5-chloro-4-(methylamino)pyrimidin-2-yl)amino)-3-methoxybenzoyl)piperazin-1-yl)methyl)cyclohexyl)methyl)thio)-2-(1-fluorocyclopropane-1-carboxamido)-3-methylbutanoyl)-N-(2-fluoro-4-(4-methylthiazol-5-yl)benzyl)-4-hydroxypyrrolidine-2-carboxamide] | 0 to 70% | 0 to 80% | 80 to 100% | 80 to 100% | 0 to 90% | 30 to 90% | 10 to 100% | 80 to 100%
CNc1nc(Nc2ccc(C(=O)N3CCN(CCOCCOCCN4CCN(c5ccc6c(c5)C(=O)N(C5CCC(=O)NC5=O)C6=O)CC4)CC3)cc2OC)ncc1Cl (centres unmarked) [SD10, 5-(4-(2-(2-(2-(4-(4-((5-chloro-4-(methylamino)pyrimidin-2-yl)amino)-3-methoxybenzoyl)piperazin-1-yl)ethoxy)ethoxy)ethyl)piperazin-1-yl)-2-(2,6-dioxopiperidin-3-yl)isoindoline-1,3-dione] | 0 to 25% | 10 to 40% | 18 to 90% | 30 to 90% | 0 to 60% | 0 to 70% | 30 to 95% | 30 to 100%
